Structures are written as SMILES.

One assay has as its system caspase-9. As to the kind of experiment: Caspase-9 activity in M109 cells (BD Apolert Caspase Assay Plate). The format is cell-based, mouse. The conditions noted are these: 1 μM. The protocol: (§1) Cultured M109 cells were treated with or without Dp44mT (1 μM) for 0-48 h at 37° C. Cells were lysed^27 and caspase activities were determined using the BD Apolert™ Caspase Assay Plate (BD Biosciences, San Diego, Calif., USA). Cell-permeable pan-caspase-3, -8, and -9 inhibitors (BD Biosciences) were included as inhibitory controls.

The test system of the next assay is caspase-8. The experiment in a line: Caspase-8 activity in M109 cells (BD Apolert Caspase Assay Plate). The conditions noted are these: 1 μM. The format is cell-based, mouse. The protocol: as §1

As to `CN(C)C(=S)NN=C(c1ccccn1)c1ccccn1` [Dp44mT, di-2-pyridylketone 4,4-dimethyl-3-thiosemicarbazone], the caspase-9 activity in the assay with caspase-9 (12 h) is reported as 354 % of the control. The “caspase-9 activity (plateau)” value in the assay with caspase-9 (after 24 h) is 400-600 % of the control. In addition, the caspase-8 activity in the assay with caspase-8 (12 h) was 299 % of the control. In addition, in the assay with caspase-8 (after 24 h), the “caspase-8 activity (plateau)” value is recorded as 400-600 % of the control.

The values are drawn from patent US20060252798A1, “Metal ion chelators and therapeutic use thereof” (priority 2003, published 2006).
